Measured values published in US20110052532A1, “Pharmaceutical composition comprising a cytokine” (priority 2007, published 2011).

How the values were obtained:
[1] = tested on: bovine viral diarrhea virus (BVDV) NADL strain; experiment: BVDV antiviral drug-drug combination assay (MTS, MacSynergy II); type: cell-based; conditions: in combination with IFN-α; MDBK cells with BVDV virus
Experimental: (§1) The substances were solubilized in DMSO. Pegylated interferon-alpha (IFN) was supplied by Southern Research Institute and dissolved in sterile dH2O.
(§2) Drug-drug interactions were assayed by testing both the antiviral and cytotoxic activities of a wide range of concentrations of combinations of the compounds and IFN. The bovine viral diarrhea virus (BVDV) NADL strain antiviral evaluation assay and drug-drug combination analysis was performed as described in Antimicro. Agents Chemother. 2003; 47: 2293-8. BVDV is frequently employed as a hepatitis C virus surrogate model in the study of antiviral agents (Antiviral Res. 2003; 60:1-15). Madin-Darby bovine kidney cells were trypsinized, pelleted, counted and resuspended at 1×10^4/well in tissue culture medium in 96-well flat bottom, tissue culture plates in volume of 100 μl per well. […] Five concentrations of substance were evaluated in combination with nine different concentrations IFN; antiviral efficacy and cellular toxicity were monitored by MTS staining at the experimental endpoint.
(§3) At assay termination, the assay plates were stained with the soluble tetrazolium-based dye MTS (CellTiter Reagent Promega) to determine cell viability and quantify compound toxicity. […]
(§4) Theoretical additive values are calculated from the dose response curves for each substance used individually. […]

[2] = tested on: Madin-Darby bovine kidney cells; experiment: BVDV assay, combined cytotoxicity (MTS staining); type: cell-based; conditions: in combination with IFN-α; MDBK cells
Experimental: as §1, §2, §3, §4

HCV = conditions: cited from earlier work

With `O=C(c1ccccc1)c1ccc2nc(NC(=O)c3csc(C4CCN(c5ncnc6ccsc56)CC4)n3)[nH]c2c1` [Compound 273, 2-(1-Thieno[3,2-d]pyrimidin-4-yl-piperidin-4-yl)-thiazole-4-carboxylic acid (5-benzoyl-1H-benzoimidazol-2-yl)-amide] as the molecule, how does the “combined antiviral activity (drug-drug interaction)” value [1] read?
The value was “highly synergistic behaviour”.

What about the “combined cytotoxic activity (drug-drug interaction)” value [2] of the same molecule?
The value was “highly antagonistic behaviour”.

B1: IFN-α: type I interferon cytokine; commercial IFN-α is IFN-α1 (protein, UniProt P01562 24-189, looked up)
Interferon alpha-1/13: CDLPETHSLDNRRTLMLLAQMSRISPSSCLMDRHDFGFPQEEFDGNQFQKAPAISVLHELIQQIFNLFTTKDSSAAWDEDLLDKFCTELYQQLNDLEACVMQEERVGETPLMNADSILAVKKYFRRITLYLTEKKYSPCAWEVVRAEIMRSLSLSTNLQERLRRKE
For B1, which “sustained antiviral response, share of patients” value (HCV; IFN-α therapy in chronic HCV infected patients) is on record?
Its value is 15-20%.

What about the sustained response (HCV; combination therapy with ribavirin) of the same molecule?
Its sustained response is 38-43%.
